# Measurements: PubChem BioAssay AID1159561 (GlaxoSmithKline (GSK), 2015)
# Calls of active or inactive are those of the source.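 Rule for the calls: active = toxic to mouse fibroblast host cells, with IC50 below 50 µM; inactive = the rest.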
# System: NIH-3T3 viability, ATP luminescence
# Assay: murine fibroblast viability via ATP level – cell-based, murine fibroblasts, cytotoxicity control for Trypanosoma cruzi inhibitor project (AID 1159561)
# Conditions: 4 days
row,Structure (SMILES),IC50
1,O=C(NCCc1cccnc1)c1ccc(-c2ccccc2F)o1,40 µM
2,COc1ccc(C(=O)Nc2cc(C(F)(F)F)ccc2N2CCOCC2)c(OC)c1,32 µM
3,CCC(c1ccc(F)cc1)n1cncc1-c1cnn(C)c1 (stereo unspecified),25 µM
4,Cc1c(C#N)c([N+](=O)[O-])nn1Cc1cccc(Cl)c1Cl,40 µM
5,Cc1ccc2c(c1)-c1onc(C(=O)N3CCCCC3c3cccnc3)c1CO2 (stereo unspecified),20 µM
6,O=C(C1CCCCC1)N1CCN(c2nnc(-c3ccccc3)c3ccccc23)CC1,> 50 µM (inactive)
7,O=c1ccc2ccc(F)c3c2n1C[C@H]3CN1CCC(NCc2cc3ccccc3o2)CC1,20 µM
8,CS(=O)(=O)NC1CCC(Oc2cc3cnccc3cc2-c2ccsc2)CC1 (stereo unspecified),16 µM
9,COc1ccc(C(C)(C)C)cc1S(=O)(=O)n1ccnc1,> 50 µM (inactive)
10,Cn1nc([N+](=O)[O-])nc1Oc1ccc(C(=O)c2ccccc2)cc1,> 50 µM (inactive)
11,Cc1cc(N(C)C)nc2ccc(Cc3cnc(N)nc3N)cc12,10 µM
12,CC(Cn1ccnc1)NC(=O)C1CC1c1cccc(Cl)c1Cl (stereo unspecified),> 50 µM (inactive)
13,CNc1cc(Cn2c(C(=O)c3cc(C)cc(Cl)c3)c(C(C)C)c(=O)[nH]c2=O)ccn1,10 µM
14,CC(Cn1ccnc1)NC(=O)COc1ccc(Cl)c(Cl)c1 (stereo unspecified),> 50 µM (inactive)
15,Cn1nccc1-c1cc(OC(CN)c2ccccc2)cnc1-c1ccco1 (stereo unspecified),20 µM
16,CNc1c(C(N)=O)c(-c2ccc3scnc3c2)nn1CC(F)(F)F,20 µM
17,CS(=O)(=O)c1ccc(CC(=O)Nc2nc(-c3ccc(Cl)s3)cs2)cc1,> 50 µM (inactive)
18,COc1ccc(-c2cc(C)no2)cc1S(=O)(=O)Nc1ccc(F)c(Cl)c1,25 µM
19,Cc1[nH]c2ccccc2c(=O)c1Cc1c(C)[nH]c2ccccc2c1=O,> 50 µM (inactive)
20,O=C1CSC(c2cccnc2)N1c1ccc(Cl)cc1Cl (stereo unspecified),> 50 µM (inactive)
21,O=C(NCCc1ccccc1Cl)c1cccn1-c1cccnc1,32 µM

row,Structure (SMILES),IC50
1,CNc1cncc(C2CCCN2C(=O)Cc2ccc3ccccc3c2)n1 (stereo unspecified),> 50 µM (inactive)
2,CC(C)N(C(=O)CN1C(=O)C(N)C(=O)N(c2ccccc2)c2ccccc21)c1ccccc1 (stereo unspecified),20 µM
3,O=C(c1cccc(Cl)c1Cl)N1CCn2c1nc(-c1ccncc1)cc2=O,20 µM
4,CC(=O)Nc1ccc(-c2csc(NC(=O)c3ccc([N+](=O)[O-])s3)n2)cc1,6.3 µM
5,CN(C)Cc1ccc(N2CCC(NS(=O)(=O)c3ccc(Cl)cc3)CC2)cc1,16 µM
6,O=C(NC1C(=O)N(c2ccccc2)C1c1cccnc1)c1ccc(Cl)s1 (stereo unspecified),> 50 µM (inactive)
7,CC(C(=O)Nc1ccc(Br)cc1)N1CCN(c2ccc([N+](=O)[O-])cc2)CC1 (stereo unspecified),> 50 µM (inactive)
8,COc1ccc2ncc(F)c(NC(=O)C3(O)CCC(NCc4ccc5c(c4)OCCO5)CC3)c2n1 (stereo unspecified),7.9 µM
9,CC(C)Oc1ccc(C(=O)Nc2ccc(N3CCOCC3)c(Cl)c2)cc1,10 µM
10,O=c1ccn(-c2ccc([N+](=O)[O-])cc2Cl)c2ccc(F)cc12,> 50 µM (inactive)
11,c1cc(-c2ncc(-c3ccn[nH]3)s2)ccn1,> 50 µM (inactive)
12,Cc1ccc2sc(NC(=O)Cn3cnc([N+](=O)[O-])n3)nc2c1,50 µM
13,Cn1nc([N+](=O)[O-])nc1N1CCCCC1,> 50 µM (inactive)
14,CN(Cc1ccc(F)cc1)c1ccc(OCC(=O)N2CCCCC2c2cccnc2)nn1 (stereo unspecified),10 µM
15,Cc1c(C(=O)NCCCCn2ccnc2)oc2c(C)cccc12,32 µM
16,O=C(NCC(c1cccnc1)N1CCc2ccccc2C1)C(=O)Nc1cccc(Cl)c1 (stereo unspecified),25 µM
17,O=C(NCC1CCCCC1)c1cc(=O)c2ccccc2o1,32 µM
18,OC1CCC(Nc2nccc(-c3sc(C4CCOCC4)nc3-c3ccc(F)c(F)c3)n2)CC1 (stereo unspecified),40 µM
19,O=C1CN(C2CCCc3c(OCc4ccncc4)cccc32)C(=O)N1C1CCCCC1 (stereo unspecified),> 50 µM (inactive)
20,Cc1cccc(NS(=O)(=O)c2ccc3c(c2)C(=O)c2cc(S(=O)(=O)Nc4cccc(C)c4C)ccc2-3)c1C,> 50 µM (inactive)
